The subject of test [1] is BMMSC. The experiment in a line: Induction of adipogenesis in human BMMSC cells assessed as increase in adiponectin secretion at 10 uM in presence of WY14643 incubated for 5 days by ELISA. In kind it is functional, cell-based. Particulars: time 5.0 day.
The target in test [2] is T1, Oxysterols receptor LXR-beta (Homo sapiens) (UniProt P55055).
T1 sequence (whole entry): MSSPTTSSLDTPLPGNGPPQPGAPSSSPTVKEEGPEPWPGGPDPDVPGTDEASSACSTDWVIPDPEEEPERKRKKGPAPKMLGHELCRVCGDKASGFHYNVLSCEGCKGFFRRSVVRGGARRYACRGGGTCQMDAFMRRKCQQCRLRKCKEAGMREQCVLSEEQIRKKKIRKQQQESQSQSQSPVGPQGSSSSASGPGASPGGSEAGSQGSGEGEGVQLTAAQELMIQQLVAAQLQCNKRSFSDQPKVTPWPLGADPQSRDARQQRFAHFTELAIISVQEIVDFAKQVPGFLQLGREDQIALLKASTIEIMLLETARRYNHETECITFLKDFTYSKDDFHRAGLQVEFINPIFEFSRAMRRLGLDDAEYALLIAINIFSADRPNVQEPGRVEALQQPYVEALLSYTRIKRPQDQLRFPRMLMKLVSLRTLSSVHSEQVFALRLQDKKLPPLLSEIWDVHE
Briefly: Transactivation of LXRbeta (unknown origin) by TR-FRET assay. (In TR-FRET formats the signal depends on donor and acceptor labels being close together.)

Test [3] concerns the target T2, Glucocorticoid receptor (Homo sapiens) (UniProt P04150).
T2 sequence (whole entry): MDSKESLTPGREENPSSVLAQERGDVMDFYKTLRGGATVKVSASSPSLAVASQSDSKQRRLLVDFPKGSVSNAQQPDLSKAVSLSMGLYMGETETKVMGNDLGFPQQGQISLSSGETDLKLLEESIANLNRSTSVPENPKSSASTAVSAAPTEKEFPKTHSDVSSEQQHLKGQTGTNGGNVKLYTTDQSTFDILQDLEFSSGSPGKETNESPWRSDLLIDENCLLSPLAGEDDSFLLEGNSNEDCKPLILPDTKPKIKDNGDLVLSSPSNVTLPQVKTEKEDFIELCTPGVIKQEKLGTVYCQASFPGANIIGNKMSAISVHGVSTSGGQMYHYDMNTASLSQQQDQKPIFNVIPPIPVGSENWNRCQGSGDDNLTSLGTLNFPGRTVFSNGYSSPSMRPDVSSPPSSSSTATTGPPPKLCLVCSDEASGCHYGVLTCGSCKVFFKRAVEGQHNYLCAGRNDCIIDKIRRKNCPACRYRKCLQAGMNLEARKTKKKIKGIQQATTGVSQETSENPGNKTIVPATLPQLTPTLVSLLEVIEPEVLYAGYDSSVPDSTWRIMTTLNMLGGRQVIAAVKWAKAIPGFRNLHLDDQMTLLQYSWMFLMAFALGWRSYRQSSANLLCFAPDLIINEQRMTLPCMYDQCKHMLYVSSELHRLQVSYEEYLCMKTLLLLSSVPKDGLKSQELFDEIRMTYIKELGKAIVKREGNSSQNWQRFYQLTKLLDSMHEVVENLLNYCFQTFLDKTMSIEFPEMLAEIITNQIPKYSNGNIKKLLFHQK
Briefly: Binding affinity to glucocorticoid receptor (unknown origin) by TR-FRET assay.

The target of test [4] is T3, Peroxisome proliferator-activated receptor gamma (Homo sapiens, UniProt P37231).
T3 sequence (P37231 whole entry): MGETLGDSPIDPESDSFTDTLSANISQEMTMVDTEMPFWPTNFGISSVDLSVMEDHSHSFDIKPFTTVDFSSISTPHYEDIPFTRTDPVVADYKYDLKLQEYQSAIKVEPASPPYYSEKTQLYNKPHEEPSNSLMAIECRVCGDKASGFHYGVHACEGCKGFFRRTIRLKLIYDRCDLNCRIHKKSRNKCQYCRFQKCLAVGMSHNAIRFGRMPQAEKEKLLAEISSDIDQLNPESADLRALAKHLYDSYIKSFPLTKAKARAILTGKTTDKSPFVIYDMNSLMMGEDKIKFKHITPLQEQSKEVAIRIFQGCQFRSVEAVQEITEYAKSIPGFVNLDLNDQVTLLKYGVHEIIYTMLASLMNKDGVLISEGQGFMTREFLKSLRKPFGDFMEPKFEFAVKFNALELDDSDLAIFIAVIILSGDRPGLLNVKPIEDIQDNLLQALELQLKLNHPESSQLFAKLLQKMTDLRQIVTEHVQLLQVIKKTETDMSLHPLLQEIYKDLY
The experiment in a line: Binding affinity to PPARgamma (unknown origin) by TR-FRET assay.

The subject of test [5] is BMMSC. Briefly: Induction of adipogenesis in human BMMSC cells assessed as lipid droplet formation at 10 uM incubated for 5 days by oil red O staining based inverted microscopy analysis. In kind it is functional, cell-based. Particulars: time 5.0 day.
The subject of test [6] is BMMSC. Briefly: Induction of adipogenesis in human BMMSC cells assessed as increase in adiponectin secretion incubated for 5 days by ELISA. The format is functional, cell-based. The following applies: time 5.0 day. Background: An ELISA detects its analyte on a solid surface through an enzyme-linked reagent.

The values below come from ChEMBL document CHEMBL4665657, “2-Phenyl-8-(1-phenylallyl)-chromenone compounds have a pan-PPAR modulator pharmacophore” (Bioorg Med Chem, 2019).

The source made the active and inactive calls. The calls are words filed in the database; no cut-off is given here.

The Ki is the equilibrium dissociation constant of an inhibitor or competing ligand from its target. As to `C=CC(c1ccccc1)c1c(O)cc(O)c2c(=O)cc(-c3ccccc3)oc12` (stereo unspecified), the result with BMMSC [1] and in the test with BMMSC [5] was Active. The result in test [2] and in test [3] was inactive. The same compound came in with a Ki in test [4] of 1410 nM. Further, the Activity result in the test on BMMSC [6] is “Dose-dependent effect”.
